Columns and labels:
[1] = tested on: NCI-H441; experiment: 3D cell viability (CTG); type: cell-based; settings: Homo sapiens; NCI-H441, KRAS G12V, 3D culture
Method: (§1) To evaluate cell viability in 3D culture, cells in logarithmic growth phase were plated in growth medium containing 0.65% methylcellulose at an optimum seeding density. Cells were incubated overnight prior to treatment with different concentrations of the test article. Cells were cultured for an additional seven days and cell viability assessed using the CellTiterGlo™ (CTG) reagent, according to the manufacturer's instructions. In some instances, cells were grown in 3D culture as spheroids. Briefly, 2500 cells/well were seeded in round bottom ultra-low attachment 96-well plates (Corning) in growth media supplemented with 10% fetal bovine serum and 1% penicillin/streptomycin, and allowed to form spheroids for 72 hours at 37° C. in 5% CO2. […] Following drug exposure for five days, cell viability in spheroids was determined using the CellTiter-Glo assay kit.

[2] = tested on: phosphorylated RTKs in MDA-MB-231 cells; experiment: Phospho-RTK array; type: cell-based; settings: MDA-MB-231 (KRAS G13D), 24 hours; selumetinib 5 μM, Compound A 1 and 5 μM
Method: To determine the effects of test article(s) on levels of phosphorylated RTKs, MDA-MB231 cells were seeded in 6-well plates and incubated overnight in full growth medium. Cells were treated for 24 hours with selumetinib (5 μM) or Compound A (1 and 5 μM) or left untreated (DMSO control). Lysates were generated using the lysis buffer provided with the kit (Phospho-RTK Array; R&D systems) with inclusion of a protease inhibitor cocktail. To control for protein concentration, total protein levels were quantified using BCA reagent kit. The levels of phospho-RTK were determined according to the manufacturer's instructions.

[3] = tested on: SW900; experiment: 3D cell viability (CTG); type: cell-based; settings: Homo sapiens; SW900, KRAS G12V, 3D culture
Method: To evaluate cell viability in 3D culture, cells in logarithmic growth phase were plated in growth medium containing 0.65% methylcellulose at an optimum seeding density. Cells were incubated overnight prior to treatment with different concentrations of the test article. Cells were cultured for an additional seven days and cell viability assessed using the CellTiterGlo™ (CTG) reagent, according to the manufacturer's instructions. In some instances, cells were grown in 3D culture as spheroids. Briefly, 2500 cells/well were seeded in round bottom ultra-low attachment 96-well plates (Corning) in growth media supplemented with 10% fetal bovine serum and 1% penicillin/streptomycin, and allowed to form spheroids for 72 hours at 37° C. in 5% CO2. […] Following drug exposure for five days, cell viability in spheroids was determined using the CellTiter-Glo assay kit. […] After one day in culture, cells were treated with the test article, which was then replenished every three days. Cells were maintained in culture for 10 days until the control wells reached confluency at which time the cells were fixed and stained with crystal violet.

[4] = tested on: NCI-H1155; experiment: 3D cell viability (CTG); type: cell-based; settings: Homo sapiens; NCI-H1155, KRAS Q61H, 3D culture
Method: as §1

[5] = tested on: NCI-H727; experiment: 3D cell viability (CTG); type: cell-based; settings: Homo sapiens; NCI-H727, KRAS G12V, 3D culture
Method: as §1

[6] = tested on: LS180; experiment: 3D cell viability (CTG); type: cell-based; settings: Homo sapiens; LS180, KRAS G12D, 3D culture
Method: as §1

[7] = tested on: MIAPaCa-2; experiment: 3D cell viability (CTG); type: cell-based; settings: Homo sapiens, MIA PaCa-2; MIAPaCa-2, KRAS G12C, 3D culture
Method: as §1

[8] = tested on: A549; experiment: 3D cell viability (CTG); type: cell-based; settings: Homo sapiens; A549, KRAS G12S, 3D culture
Method: as §1

[9] = tested on: NCI-H1573; experiment: 3D cell viability (CTG); type: cell-based; settings: Homo sapiens; NCI-H1573, KRAS G12A, 3D culture
Method: as §1

[10] = tested on: H358 KRas G12C xenograft; experiment: NSCLC H358 xenograft, athymic nude mice; type: in vivo; settings: oral administration
Method: Compound A or Compound B were administered by oral gavage daily. The positive control, paclitaxel (30 mg/kg iv) in 5% ethanol, 5% cremophor EL, in 5% dextrose in deionized water was administered once every five days. Trametinib (1 mg/kg PO in 0.5% Methylcellulose+0.5% Tween 80) was administered by oral gavage daily. The study endpoint was defined as a mean tumor volume of 2000 mm^3 in the control group or 22 days, whichever came first. Mean tumor volume data are reported for all animals that remained on study.

[11] = tested on: MiaPaca-2 KRas G12C xenograft; experiment: Pancreatic MiaPaca-2 xenograft; type: in vivo, mice
From the text: Similar methods were used to evaluate efficacy of test articles in the pancreatic MiaPaca-2 KRas^G12C xenograft model. Balb/c nude mice (6-8 weeks old) were implanted with […] MiaPaca-2 tumor cells in 50% Matrigel subcutaneously in the flank. […] Administration of test articles and study design are as described above for H358 xenograft model.

[12] = tested on: p-ERK1/2 in Calu-1 cells; experiment: p-ERK AlphaLisa SureFire; type: cell-based, human; settings: Calu-1 cells (KRAS G12C)
Method: Cells were plated at ˜20×10^3 cells per well and following overnight incubation were washed with serum-free media. Cells were then incubated for one hour with increasing concentrations of the test article in serum-free media containing 0.2% BSA prior to termination of the assay and measurement of pERK levels in cellular lysates by AlphaLisa SureFire Ultra kit conducted according to the manufacturer's instructions.

Compound	IC50 [1] [µM]	feedback-driven p-RTK hyperactivation [2]	IC50 [3] [µM]	IC50 [4] [µM]	IC50 [5] [µM]	IC50 [6] [µM]	IC50 [7] [µM]	IC50 [8] [µM]	IC50 [9] [µM]	tumor volume [10]	reduction in tumor volume compared with trametinib ([11]; 30 mg/kg PO qd, trametinib 1 mg/kg PO, MiaPaca-2 model)	tumor volume ([11]; oral administration, MiaPaca-2 xenograft)	inhibition of p-ERK1/2 levels [12]
Nc1nc(N2CCC3(CCC[C@H]3N)CC2)cnc1Sc1ccnc(Cl)c1Cl [Compound A]	0.1	did not	> 10	> 10	0.3	> 10	0.3	> 10	0.2	–	–	–	–
Cc1nc(N2CCC3(CC2)CO[C@@H](C)[C@H]3N)c(CO)nc1-c1cccc(Cl)c1Cl [Compound B]	–	–	–	–	–	–	–	–	–	dose-dependent decrease	greater than trametinib	dose-dependent decrease	concentration-dependent inhibition
